Measurements taken from ChEMBL document CHEMBL1159305, “Vidalenolone, a novel phenolic metabolite from the tropical red alga Vidalia sp” (J Nat Prod, 2002).
Active and inactive are the calls of the source.

Key:
[1] = molecular target: Tyrosine-protein kinase ABL1 (Homo sapiens) (UniProt P00519); assay: Inhibition of GST-tagged human recombinant full length Abl SH2 domain expressed in Escherichia coli […] binding to biotinylated phosphotyrosine-containing peptide by ELISA
[2] = molecular target: Tyrosine-protein kinase Fyn (Homo sapiens) (UniProt P06241); assay: Inhibition of GST-tagged human recombinant full length Fyn SH2 domain expressed in Escherichia coli […] binding to biotinylated phosphotyrosine-containing peptide by ELISA
Sequence of Tyrosine-protein kinase Fyn (Homo sapiens) (P06241 2-537 limits assumed): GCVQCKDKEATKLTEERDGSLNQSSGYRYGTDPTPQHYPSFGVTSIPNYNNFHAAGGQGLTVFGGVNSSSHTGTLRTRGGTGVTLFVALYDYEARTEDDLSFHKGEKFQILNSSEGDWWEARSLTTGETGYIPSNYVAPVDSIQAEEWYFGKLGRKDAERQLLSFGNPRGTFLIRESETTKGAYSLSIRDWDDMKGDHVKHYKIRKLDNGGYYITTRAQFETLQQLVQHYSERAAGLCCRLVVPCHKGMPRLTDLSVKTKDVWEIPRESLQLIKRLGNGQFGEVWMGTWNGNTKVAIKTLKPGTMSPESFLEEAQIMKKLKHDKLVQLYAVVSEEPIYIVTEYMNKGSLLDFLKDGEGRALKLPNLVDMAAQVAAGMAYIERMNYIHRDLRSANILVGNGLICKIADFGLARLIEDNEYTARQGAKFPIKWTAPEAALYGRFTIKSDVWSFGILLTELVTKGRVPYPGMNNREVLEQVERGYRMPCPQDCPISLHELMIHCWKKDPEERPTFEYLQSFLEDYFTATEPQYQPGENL

[3] = molecular target: Growth factor receptor-bound protein 2 (Homo sapiens) (UniProt P62993); assay: Inhibition of GST-tagged human recombinant full length Grb2 SH2 domain expressed in Escherichia coli […] binding to biotinylated phosphotyrosine-containing peptide by ELISA
Sequence of Growth factor receptor-bound protein 2 (Homo sapiens) (P62993 whole entry, looked up, the tested form may be a part): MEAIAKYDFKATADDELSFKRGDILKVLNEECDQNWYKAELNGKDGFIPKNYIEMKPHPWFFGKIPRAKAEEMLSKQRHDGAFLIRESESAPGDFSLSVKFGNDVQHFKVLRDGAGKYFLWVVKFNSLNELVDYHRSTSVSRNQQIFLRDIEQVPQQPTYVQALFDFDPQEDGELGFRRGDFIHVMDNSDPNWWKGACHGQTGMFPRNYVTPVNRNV

[4] = molecular target: Adapter molecule crk (Homo sapiens) (UniProt P46108); assay: Inhibition of GST-tagged human recombinant full length Crk SH2 domain expressed in Escherichia coli […] binding to biotinylated phosphotyrosine-containing peptide by ELISA
Sequence of Adapter molecule crk (Homo sapiens) (P46108 whole entry, the tested form may be a part): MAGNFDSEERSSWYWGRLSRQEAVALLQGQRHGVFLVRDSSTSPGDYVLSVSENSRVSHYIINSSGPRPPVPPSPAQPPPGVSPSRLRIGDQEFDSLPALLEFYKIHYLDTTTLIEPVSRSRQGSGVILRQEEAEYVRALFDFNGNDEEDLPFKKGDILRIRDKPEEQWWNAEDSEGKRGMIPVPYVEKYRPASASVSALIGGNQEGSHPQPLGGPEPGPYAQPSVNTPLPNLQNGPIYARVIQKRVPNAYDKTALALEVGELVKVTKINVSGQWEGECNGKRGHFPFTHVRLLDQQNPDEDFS

Measured: Activity

Sequence of Tyrosine-protein kinase ABL1 (Homo sapiens) (P00519 whole entry, the tested form may be a part): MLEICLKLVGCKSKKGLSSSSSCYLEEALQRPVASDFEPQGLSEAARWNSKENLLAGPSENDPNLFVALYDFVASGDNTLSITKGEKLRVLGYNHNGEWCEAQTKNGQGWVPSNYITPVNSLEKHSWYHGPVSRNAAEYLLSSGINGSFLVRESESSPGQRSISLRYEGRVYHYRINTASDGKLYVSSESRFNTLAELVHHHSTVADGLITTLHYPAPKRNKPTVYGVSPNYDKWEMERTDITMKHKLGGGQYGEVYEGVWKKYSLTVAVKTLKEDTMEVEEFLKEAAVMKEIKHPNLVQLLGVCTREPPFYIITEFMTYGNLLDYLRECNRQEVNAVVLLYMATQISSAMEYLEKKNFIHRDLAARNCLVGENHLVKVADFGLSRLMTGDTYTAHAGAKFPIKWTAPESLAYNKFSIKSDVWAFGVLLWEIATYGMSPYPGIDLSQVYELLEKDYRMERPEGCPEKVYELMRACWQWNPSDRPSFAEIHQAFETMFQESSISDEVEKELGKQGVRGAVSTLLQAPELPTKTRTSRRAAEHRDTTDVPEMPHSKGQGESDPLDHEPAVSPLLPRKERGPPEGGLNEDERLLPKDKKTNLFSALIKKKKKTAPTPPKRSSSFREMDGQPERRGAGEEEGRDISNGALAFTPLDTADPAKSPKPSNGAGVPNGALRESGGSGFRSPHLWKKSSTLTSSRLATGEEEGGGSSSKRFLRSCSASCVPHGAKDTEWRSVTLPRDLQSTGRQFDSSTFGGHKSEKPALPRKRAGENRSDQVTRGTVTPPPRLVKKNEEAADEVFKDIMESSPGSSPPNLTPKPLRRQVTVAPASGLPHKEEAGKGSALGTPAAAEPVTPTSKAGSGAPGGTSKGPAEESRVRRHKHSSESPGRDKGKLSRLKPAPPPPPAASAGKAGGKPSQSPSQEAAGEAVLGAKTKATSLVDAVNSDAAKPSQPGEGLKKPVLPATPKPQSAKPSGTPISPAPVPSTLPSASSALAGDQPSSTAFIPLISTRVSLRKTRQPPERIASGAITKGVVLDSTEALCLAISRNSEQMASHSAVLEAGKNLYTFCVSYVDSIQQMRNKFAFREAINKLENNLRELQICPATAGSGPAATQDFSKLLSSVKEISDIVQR

OCc1ccc(O)cc1
inactive: all assays above

COC1(Cc2ccc(O)cc2)CC=C(O)C1=O (configuration not stated)
inactive: all assays above

CCOCc1cc(O)c(O)c(Br)c1Br
inactive: all assays above
